According to article PMC10739871, “Structural insights into the regulation, ligand recognition, and oligomerization of bacterial STING” (Nature Communications, 2023):
Values joined by “and” are separate entries in the source; they are usually repeats but may differ in a detail not shown here. Equal values may be shown once. Read-outs that look alike come from different tables or passages of the source.

How the values were obtained:
ElTIR-STING [1] = test: NAD+ cleavage activity assay, ElTIR-STING; type: biochemical, Epilithonimonas lactis; settings: for ΔRFU after 10 mins (single replicates): 500 μM ε-NAD; for ΔRFU after 10 mins, Average: n = 3
Experimental: (§1) The NAD^+ cleavage activity of the N-terminal TIR domain of full-length TIR-STING proteins were accessed using the previously described protocol. Briefly, 100 μl reaction mixture containing ligand (cGG or cAA) at the indicated concentration and 500 μM ε-NAD (Product No. N2630, Sigma-Aldrich) in the assay buffer (20 mM HEPES pH 7.5, 100 mM KCl) was pre-incubated at room temperature. Tested TIR-STING protein (0.5–1 μM) was then added to start the reaction. The fluorescence signal was continuously monitored for 1 hour at an emission wavelength of 410 nm with excitation at 300 nm using Synergy H1 microplate reader (BioTek). The changes of relative fluorescence units at different time points were recorded.

[2] = tested on: E. coli cells overexpressing ElTIR-STING; test: E. coli toxicity assay (growth curves), ElTIR-STING with or without cAA; type: cell-based, E. coli BL21(DE3); settings: for OD600: replicates 1-3
Experimental: To access the cytotoxicity of TIR-STING proteins and their variants, E. coli BL21(DE3) cells which produce endogenous cGG were used. The cells carrying expression plasmid pET21 or pET24 with indicated TIR-STING were first inoculated into 3-ml LB medium and incubated at 37 °C with shaking overnight. The overnight culture was then diluted by fresh LB medium to an optical density at 600 nm (O.D.600) of ~0.1-0.2, followed by addition of 0.5 mM IPTG and 30 mM nicotinamide to induce the overexpression of tested proteins. […] To access the anti-phage ability of full-length LrTIR-STING, E. coli BL21(DE3) cells containing empty vector, pET24_LrTIR-STING or pET24_LrTIR-STING lid-to-loop mutant was first cultivated at 37 °C overnight and then diluted with fresh medium to O.D.600 of 0.1-0.2, followed by 0.5 mM IPTG induction and infected with T2 phage at a multiplicity of infection (MOI) of 10 or 0.01. The E. coli BL21(DE3) cells without IPTG induction and T2 phage infection was served as control.

[3] = tested on: T2 phage infection of E. coli cells overexpressing ElTIR-STING; type: cell-based, E. coli BL21(DE3) / phage T2; settings: for OD600: replicates 1-3
ElTIR-STING [4] = test: Gel filtration / SEC-MALS of ElTIR-STING with cAA; parameters: species or system Epilithonimonas lactis
Experimental: Purified protein samples for SEC-MALS analysis were diluted in buffer containing 50 mM Tris pH 8.0, 200 mM NaCl, 1 mM TCEP to a final concentration of 1 mg/ml. The protein sample was incubated with 0.11 mM cyclic di-nucleotide at 4 °C for 1 hour, followed by centrifugation at 4 °C, 18,000x g for 30 mins to remove precipitated proteins. The final protein sample was analyzed using GE AKTA UPC Purifier FPLC system coupled to a Wyatt Optilab T-rex refractive index detector and a Wyatt miniDAWN TREOS to obtain O.D.280, molar mass and refractive index (dRI).

ElSTING = test: ITC binding of cAA to ElSTING; parameters: species or system Epilithonimonas lactis; settings: ITC (Supplementary Fig. 5)
Experimental: (§2) ITC experiments were performed at 25 °C using nano-ITC (TA Instruments). Purified RiSTING and ElSTING were exchanged into assay buffer containing 20 mM Tris pH 8.0, 150 mM NaCl. 10 mM stock of cGG (Item No. 17144, Cayman Chemical) and cAA (Item No. 17753, Cayman Chemical) were prepared by dissolving in the same buffer. 20 injections of ligand (0.9-1.2 mM) were sequentially titrated to tested STING protein solution (30-100 μM) with a stirring speed of 300 rpm. Data were fit to “independent” model to derive ΔH, ΔS, and Kd values using NanoAnalyze v3.12.5 (TA Instruments).

[5] = target: oligomerization mutant ElTIR-STING^D175R,S179R (Epilithonimonas lactis DSM 19921); test: SEC; gel-filtration analysis of full-length ElTIR-STING in the presence of cAA at 2-fold molar excess
[6] = target: oligomerization mutant ElTIR-STING^D175R,S179R (Epilithonimonas lactis DSM 19921); test: SEC; gel-filtration analysis of full-length ElTIR-STING in the absence of cAA
MyTIR-STING = test: NAD+ cleavage activity assay, MyTIR-STING (control); type: biochemical; settings: 1 μM cGG
Experimental: as §1

RiSTING [7] = test: Dynamic light scattering of RiSTING with or without cGG; parameters: species or system Riemerella anatipestifer; settings: two molar excesses of cGG; 84% of particles; 9.0 nm without cGG
Experimental: The DLS experiments were performed using Zetasizer Nano ZS90 (Malvern instruments). Briefly, protein samples containing 1 mg/ml RiSTING in the presence or absence of 2-fold molar excess of cGG were prepared and degassed. Polydispersity index (PDI) and globule size were examined at 25 °C.

RiSTING [8] = test: ITC binding of cGG to RiSTING; parameters: species or system Riemerella anatipestifer
Experimental: as §2

With Nc1ncnc2c1ncn2[C@@H]1O[C@@H]2COP(=O)(O)O[C@H]3[C@@H](O)[C@H](n4cnc5c(N)ncnc54)O[C@@H]3COP(=O)(O)O[C@H]2[C@H]1O [cAA, 3′3′-cyclic di-AMP] the “ΔRFU after 10 mins (single replicates)” value (ElTIR-STING [1]; 1 μM cAA) was 3735 RFU and 3756 RFU and 9276 RFU, the “ΔRFU after 10 mins, Average” value (ElTIR-STING [1]; 1 μM cAA) was 5589 RFU and the “ΔRFU after 10 mins (single replicates)” value (ElTIR-STING [1]; 10 μM cAA) was 3586 RFU and 4211 RFU and 4642 RFU. The “ΔRFU after 10 mins, Average” value (ElTIR-STING [1]; 10 μM cAA) was 4146 RFU, the “ΔRFU after 10 mins (single replicates)” value (ElTIR-STING [1]; 100 μM cAA) was 4282 RFU and 3852 RFU and 4467 RFU and the “ΔRFU after 10 mins, Average” value (ElTIR-STING [1]; 100 μM cAA) was 4200 RFU. The “activation of NAD+ cleavage activity (in words)” value (ElTIR-STING [1]; full-length ElTIR-STING, up to 100 μM cAA) was “could not activate”, the OD600 ([2]; time 0 min, 300 μM cAA (Fig. 4b legend)) was 0.028 (2×) and 0.026 and the OD600 ([2]; time 20 min, 300 μM cAA) was 0.036 and 0.037 and 0.034. The OD600 ([2]; time 40 min, 300 μM cAA) was 0.056 (2×) and 0.054, the OD600 ([2]; time 60 min, 300 μM cAA) was 0.083 (2×) and 0.079 and the OD600 ([2]; time 80 min, 300 μM cAA) was 0.125 and 0.124 and 0.119. The OD600 ([2]; time 100 min, 300 μM cAA) was 0.186 and 0.183 and 0.175, the OD600 ([2]; time 120 min, 300 μM cAA) was 0.252 (2×) and 0.244 and the OD600 ([2]; time 140 min, 300 μM cAA) was 0.33 and 0.331 and 0.326. The OD600 ([2]; time 160 min, 300 μM cAA) was 0.408 (2×) and 0.41, the OD600 ([2]; time 180 min, 300 μM cAA) was 0.503 and 0.497 and 0.506 and the OD600 ([2]; time 200 min, 300 μM cAA) was 0.563 and 0.565 and 0.575. The OD600 ([2]; time 220 min, 300 μM cAA) was 0.612 and 0.615 and 0.627, the OD600 ([2]; time 240 min, 300 μM cAA) was 0.66 (2×) and 0.677 and the OD600 ([2]; time 260 min, 300 μM cAA) was 0.7 and 0.704 and 0.715. For the same compound, the OD600 ([2]; time 280 min, 300 μM cAA) was 0.73 and 0.732 and 0.743, the OD600 ([2]; time 300 min, 300 μM cAA) was 0.765 and 0.764 and 0.784 and the OD600 ([2]; time 320 min, 300 μM cAA) was 0.798 and 0.804 and 0.81. The OD600 ([2]; time 340 min, 300 μM cAA) was 0.822 and 0.831 and 0.839, the OD600 ([2]; time 360 min, 300 μM cAA) was 0.854 and 0.863 and 0.865 and the OD600 ([2]; time 380 min, 300 μM cAA) was 0.875 and 0.886 and 0.885. The OD600 ([2]; time 400 min, 300 μM cAA) was 0.892 and 0.904 and 0.902, the OD600 ([2]; time 420 min, 300 μM cAA) was 0.901 and 0.917 and 0.912 and the OD600 ([2]; time 440 min, 300 μM cAA) was 0.911 and 0.927 and 0.92. The OD600 ([2]; time 460 min, 300 μM cAA) was 0.919 and 0.935 and 0.929, the OD600 ([2]; time 480 min, 300 μM cAA) was 0.926 and 0.943 and 0.935 and the OD600 ([2]; time 500 min, 300 μM cAA) was 0.933 and 0.952 and 0.942. For the same compound, the “effect on growth of E. coli expressing ElTIR-STING (in words)” value ([2]; with vs without addition of cAA and vs empty vector) was “no differences”, the “resistance to phage infection (in words)” value ([3]; 100 μM cAA in growth medium, T2 phage) was “did not confer resistance” and the OD600 ([3]; MOI = 0.01, time 30 min) was 0.015 and 0.017 and 0.016. For the same compound, the OD600 ([3]; MOI = 0.01, time 45 min) was 0.021 and 0.024 and 0.023, the OD600 ([3]; MOI = 0.01, time 60 min) was 0.030 (2×) and 0.032 and the OD600 ([3]; MOI = 0.01, time 75 min) was 0.036 (2×) and 0.038. For the same compound, the OD600 ([3]; MOI = 0.01, time 90 min) was 0.040 (2×) and 0.043, the OD600 ([3]; MOI = 0.01, time 105 min) was 0.042 and 0.045 and 0.041 and the OD600 ([3]; MOI = 0.01, time 120 min) was 0.046 (2×) and 0.050. The OD600 ([3]; MOI = 0.01, time 135 min) was 0.050 and 0.053 and 0.049, the OD600 ([3]; MOI = 0.01, time 150 min) was 0.054 and 0.057 and 0.062 and the OD600 ([3]; MOI = 0.01, time 165 min) was 0.058 and 0.060 and 0.056. The OD600 ([3]; MOI = 0.01, time 180 min) was 0.061 and 0.064 and 0.058, the OD600 ([3]; MOI = 1, time 30 min) was 0.017 and 0.015 and 0.011 and the OD600 ([3]; MOI = 1, time 45 min) was 0.019 and 0.018 and 0.012. For the same compound, the OD600 ([3]; MOI = 1, time 60 min) was 0.021 and 0.019 and 0.014, the OD600 ([3]; MOI = 1, time 75 min) was 0.021 and 0.020 and 0.015 and the OD600 ([3]; MOI = 1, time 90 min) was 0.023 and 0.021 and 0.016. The OD600 ([3]; MOI = 1, time 105 min) was 0.025 and 0.023 and 0.018, the OD600 ([3]; MOI = 1, time 120 min) was 0.027 and 0.025 and 0.019 and the OD600 ([3]; MOI = 1, time 135 min) was 0.028 and 0.025 and 0.020. The OD600 ([3]; MOI = 1, time 150 min) was 0.029 and 0.027 and 0.021, the OD600 ([3]; MOI = 1, time 165 min) was 0.030 and 0.028 and 0.022 and the OD600 ([3]; MOI = 1, time 180 min) was 0.030 and 0.029 and 0.022. For the same compound, the OD600 ([3]; Uninfected, time 30 min) was 0.025 and 0.017 (2×), the OD600 ([3]; Uninfected, time 45 min) was 0.032 and 0.023 and 0.024 and the OD600 ([3]; Uninfected, time 60 min) was 0.034 and 0.033 (2×). For the same compound, the OD600 ([3]; Uninfected, time 75 min) was 0.049 and 0.047 and 0.046, the OD600 ([3]; Uninfected, time 90 min) was 0.067 and 0.064 and 0.063 and the OD600 ([3]; Uninfected, time 105 min) was 0.091 and 0.087 (2×). For the same compound, the OD600 ([3]; Uninfected, time 120 min) was 0.121 and 0.117 and 0.116, the OD600 ([3]; Uninfected, time 135 min) was 0.160 and 0.155 and 0.152 and the OD600 ([3]; Uninfected, time 150 min) was 0.208 and 0.200 and 0.197. The OD600 ([3]; Uninfected, time 165 min) was 0.262 and 0.252 and 0.247, the OD600 ([3]; Uninfected, time 180 min) was 0.327 and 0.313 and 0.308 and the OD600 ([3]; Uninfected, time 195 min) was 0.398. For the same compound, the “molecular weight of cAA-induced ElTIR-STING oligomer” value (ElTIR-STING [4]; SEC-MALS, 0.11 mM cyclic di-nucleotide) was 3937–7883 kDa, the “oligomeric state induced (in words)” value (ElTIR-STING [4]; gel filtration, 2-fold molar excess of cAA, dimeric without ligand) was “large oligomers” and the “binding affinity (in words)” value (ElSTING) was “micromolar affinity”.
“oligomerization mutant ElTIR-STING^D175R,S179R (natural protein)” was tested, and the stoichiometry N [5] was 6 and 2 and the stoichiometry N [6] was 6 and 2.
In the case of Nc1nc2c(ncn2[C@@H]2O[C@@H]3COP(=O)(O)O[C@H]4[C@@H](O)[C@H](n5cnc6c(=O)[nH]c(N)nc65)O[C@@H]4COP(=O)(O)O[C@H]3[C@H]2O)c(=O)[nH]1 [cGG, 3′3′-cyclic di-GMP], the “ΔRFU after 10 mins, Average” value (MyTIR-STING; n = 3) is reported as 31574 RFU, the “ΔRFU after 10 mins (single replicates)” value (MyTIR-STING; positive control) is reported as 32209 RFU and 31707 RFU and 30806 RFU and the “major particle size of RiSTING” value (RiSTING [7]) is reported as 40.6 nm. The “binding affinity (in words)” value (RiSTING [8]) was “nanomolar affinity” and the Kd (RiSTING [8]; 25 °C, 20 mM Tris pH 8.0, 150 mM NaCl, read-out: dissociation constant (Kd)) was 0.1 nM.
